Key:
Experiment in all cases: Test B preemergence/postemergence greenhouse plant response rating 0 to 10
[1] = tested on: cocklebur; assay type: in vivo, Xanthium pensylvanicum; settings: 0 to 10 scale
Method in brief: (§1)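 Postemergence treatment of plants two to eighteen cm tall ran alongside preemergence treatment of planted seed, each using compound in a non-phytotoxic solvent.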

[2] = tested on: wheat; assay type: in vivo, Triticum aestivum; settings: 0 to 10 scale
Method in brief: as §1

[3] = tested on: barnyardgrass; assay type: in vivo, Echinochloa crus-galli; settings: 0 to 10 scale
Method in brief: as §1

[4] = tested on: lambsquarters; assay type: in vivo, Chenopodium album; settings: 0 to 10 scale
Method in brief: as §1

[5] = tested on: sugar beet; assay type: in vivo, Beta vulgaris; settings: 0 to 10 scale
Method in brief: as §1

[6] = tested on: morningglory; assay type: in vivo, Ipomoea hederacea; settings: 0 to 10 scale
Method in brief: as §1

[7] = tested on: chickweed; assay type: in vivo, Stellaria media; settings: Rate 200 g/ha, 0 to 10 scale
Method in brief: as §1

[8] = tested on: sorghum; assay type: in vivo, Sorghum bicolor; settings: 0 to 10 scale
Method in brief: as §1

[9] = tested on: rice; assay type: in vivo, Oryza sativa; settings: 0 to 10 scale
Method in brief: as §1

[10] = tested on: blackgrass; assay type: in vivo, Alopecurus myosuroides; settings: 0 to 10 scale
Method in brief: as §1

[11] = tested on: soybean; assay type: in vivo, Glycine max; settings: 0 to 10 scale
Method in brief: as §1

[12] = tested on: cotton; assay type: in vivo, Gossypium hirsutum; settings: 0 to 10 scale
Method in brief: as §1

[13] = tested on: rape; assay type: in vivo, Brassica napus; settings: 0 to 10 scale
Method in brief: as §1

[14] = tested on: bedstraw; assay type: in vivo, Galium aparine; settings: 0 to 10 scale
Method in brief: as §1

[15] = tested on: crabgrass; assay type: in vivo, Digitaria spp.; settings: 0 to 10 scale
Method in brief: as §1

[16] = tested on: barley; assay type: in vivo, Hordeum vulgare; settings: 0 to 10 scale
Method in brief: as §1

[17] = tested on: purple nutsedge; assay type: in vivo, Cyperus rotundus; settings: 0 to 10 scale
Method in brief: as §1

[18] = tested on: velvetleaf; assay type: in vivo, Abutilon theophrasti; settings: 0 to 10 scale
Method in brief: as §1

[19] = tested on: wild oat; assay type: in vivo, Avena fatua; settings: 0 to 10 scale
Method in brief: as §1

[20] = tested on: cheatgrass; assay type: in vivo, Bromus secalinus; settings: 0 to 10 scale
Method in brief: as §1

[21] = tested on: corn; assay type: in vivo, Zea mays; settings: 0 to 10 scale
Method in brief: as §1

[22] = tested on: wild buckwheat; assay type: in vivo, Polygonum convolvulus; settings: 0 to 10 scale
Method in brief: as §1

[23] = tested on: giant foxtail; assay type: in vivo, Setaria faberii; settings: 0 to 10 scale
Method in brief: as §1

Clc1ccc(-c2nn3c(c2Cl)CCCC3)c(Cl)c1 [Compound 35]
Plant response rating, Cocklebur ([1]; POSTEMERGENCE, Rate 50 g/ha): 5 | Plant response rating, Cocklebur ([1]; POSTEMERGENCE, Rate 200 g/ha): 7 | Plant response rating, Cocklebur ([1]; PREEMERGENCE, Rate 50 g/ha): 0 | Plant response rating, Cocklebur ([1]; Rate 200 g/ha, PREEMERGENCE): 2 | Plant response rating, Wheat ([2]; POSTEMERGENCE, Rate 50 g/ha): 2 | Plant response rating, Wheat ([2]; PREEMERGENCE, Rate 50 g/ha): 0 | Plant response rating, Wheat ([2]; Rate 200 g/ha, POSTEMERGENCE): 5 | Plant response rating, Wheat ([2]; Rate 200 g/ha, PREEMERGENCE): 7 | Plant response rating, Barnyardgrass ([3]; POSTEMERGENCE, Rate 50 g/ha): 5 | Plant response rating, Barnyardgrass ([3]; POSTEMERGENCE, Rate 200 g/ha): 9 | Plant response rating, Barnyardgrass ([3]; PREEMERGENCE, Rate 50 g/ha): 1 | Plant response rating, Barnyardgrass ([3]; Rate 200 g/ha, PREEMERGENCE): 7 | Plant response rating, Lambsquarter ([4]; POSTEMERGENCE, Rate 50 g/ha): 9 | Plant response rating, Lambsquarter ([4]; PREEMERGENCE, Rate 50 g/ha): 10 | Plant response rating, Lambsquarter ([4]; Rate 200 g/ha, POSTEMERGENCE): 10 | Plant response rating, Lambsquarter ([4]; Rate 200 g/ha, PREEMERGENCE): 10 | Plant response rating, Sugar beet ([5]; POSTEMERGENCE, Rate 50 g/ha): 9 | Plant response rating, Sugar beet ([5]; PREEMERGENCE, Rate 50 g/ha): 0 | Plant response rating, Sugar beet ([5]; Rate 200 g/ha, POSTEMERGENCE): 10 | Plant response rating, Sugar beet ([5]; Rate 200 g/ha, PREEMERGENCE): 4 | Plant response rating, Morningglory ([6]; POSTEMERGENCE, Rate 50 g/ha): 5 | Plant response rating, Morningglory ([6]; PREEMERGENCE, Rate 50 g/ha): 0 | Plant response rating, Morningglory ([6]; Rate 200 g/ha, POSTEMERGENCE): 7 | Plant response rating, Morningglory ([6]; Rate 200 g/ha, PREEMERGENCE): 2 | Plant response rating, Chickweed ([7]; POSTEMERGENCE): 3 | Plant response rating, Chickweed ([7]; PREEMERGENCE): 9 | Plant response rating, Sorghum ([8]; POSTEMERGENCE, Rate 50 g/ha): 5 | Plant response rating, Sorghum ([8]; PREEMERGENCE, Rate 50 g/ha): 0 | Plant response rating, Sorghum ([8]; Rate 200 g/ha, POSTEMERGENCE): 6 | Plant response rating, Sorghum ([8]; Rate 200 g/ha, PREEMERGENCE): 3 | Plant response rating, Rice ([9]; POSTEMERGENCE, Rate 50 g/ha): 5 | Plant response rating, Rice ([9]; PREEMERGENCE, Rate 50 g/ha): 0 | Plant response rating, Rice ([9]; Rate 200 g/ha, POSTEMERGENCE): 6 | Plant response rating, Rice ([9]; Rate 200 g/ha, PREEMERGENCE): 2 | Plant response rating, Blackgrass ([10]; POSTEMERGENCE, Rate 50 g/ha): 3 | Plant response rating, Blackgrass ([10]; POSTEMERGENCE, Rate 200 g/ha): 4 | Plant response rating, Blackgrass ([10]; PREEMERGENCE, Rate 50 g/ha): 0 | Plant response rating, Blackgrass ([10]; Rate 200 g/ha, PREEMERGENCE): 4 | Plant response rating, Soybean ([11]; POSTEMERGENCE, Rate 50 g/ha): 4 | Plant response rating, Soybean ([11]; PREEMERGENCE, Rate 50 g/ha): 0 | Plant response rating, Soybean ([11]; Rate 200 g/ha, POSTEMERGENCE): 5 | Plant response rating, Soybean ([11]; Rate 200 g/ha, PREEMERGENCE): 3 | Plant response rating, Cotton ([12]; POSTEMERGENCE, Rate 50 g/ha): 9 | Plant response rating, Cotton ([12]; POSTEMERGENCE, Rate 200 g/ha): 10 | Plant response rating, Cotton ([12]; PREEMERGENCE, Rate 50 g/ha): 0 | Plant response rating, Cotton ([12]; Rate 200 g/ha, PREEMERGENCE): 4 | Plant response rating, Rape ([13]; POSTEMERGENCE, Rate 50 g/ha): 6 | Plant response rating, Rape ([13]; PREEMERGENCE, Rate 50 g/ha): 0 | Plant response rating, Rape ([13]; Rate 200 g/ha, POSTEMERGENCE): 9 | Plant response rating, Bedstraw ([14]; POSTEMERGENCE, Rate 50 g/ha): 7 | Plant response rating, Bedstraw ([14]; POSTEMERGENCE, Rate 200 g/ha): 9 | Plant response rating, Bedstraw ([14]; PREEMERGENCE, Rate 50 g/ha): 0 | Plant response rating, Bedstraw ([14]; Rate 200 g/ha, PREEMERGENCE): 8 | Plant response rating, Crabgrass ([15]; POSTEMERGENCE, Rate 50 g/ha): 3 | Plant response rating, Crabgrass ([15]; POSTEMERGENCE, Rate 200 g/ha): 6 | Plant response rating, Crabgrass ([15]; PREEMERGENCE, Rate 50 g/ha): 4 | Plant response rating, Crabgrass ([15]; Rate 200 g/ha, PREEMERGENCE): 9 | Plant response rating, Barley ([16]; POSTEMERGENCE, Rate 50 g/ha): 2 | Plant response rating, Barley ([16]; POSTEMERGENCE, Rate 200 g/ha): 4 | Plant response rating, Barley ([16]; PREEMERGENCE, Rate 50 g/ha): 0 | Plant response rating, Barley ([16]; Rate 200 g/ha, PREEMERGENCE): 0 | Plant response rating, Nutsedge ([17]; POSTEMERGENCE, Rate 50 g/ha): 1 | Plant response rating, Nutsedge ([17]; PREEMERGENCE, Rate 50 g/ha): 0 | Plant response rating, Nutsedge ([17]; Rate 200 g/ha, POSTEMERGENCE): 3 | Plant response rating, Nutsedge ([17]; Rate 200 g/ha, PREEMERGENCE): 2 | Plant response rating, Velvetleaf ([18]; POSTEMERGENCE, Rate 50 g/ha): 8 | Plant response rating, Velvetleaf ([18]; PREEMERGENCE, Rate 50 g/ha): 2 | Plant response rating, Velvetleaf ([18]; Rate 200 g/ha, POSTEMERGENCE): 10 | Plant response rating, Velvetleaf ([18]; Rate 200 g/ha, PREEMERGENCE): 10 | Plant response rating, Wild oat ([19]; POSTEMERGENCE, Rate 50 g/ha): 3 | Plant response rating, Wild oat ([19]; PREEMERGENCE, Rate 50 g/ha): 0 | Plant response rating, Wild oat ([19]; Rate 200 g/ha, POSTEMERGENCE): 4 | Plant response rating, Cheatgrass ([20]; POSTEMERGENCE, Rate 50 g/ha): 3 | Plant response rating, Cheatgrass ([20]; POSTEMERGENCE, Rate 200 g/ha): 5 | Plant response rating, Cheatgrass ([20]; PREEMERGENCE, Rate 50 g/ha): 1 | Plant response rating, Cheatgrass ([20]; Rate 200 g/ha, PREEMERGENCE): 5 | Plant response rating, Corn ([21]; POSTEMERGENCE, Rate 50 g/ha): 4 | Plant response rating, Corn ([21]; POSTEMERGENCE, Rate 200 g/ha): 7 | Plant response rating, Corn ([21]; PREEMERGENCE, Rate 50 g/ha): 0 | Plant response rating, Corn ([21]; Rate 200 g/ha, PREEMERGENCE): 3 | Plant response rating, Wild buckwheat ([22]; POSTEMERGENCE, Rate 50 g/ha): 6 | Plant response rating, Wild buckwheat ([22]; PREEMERGENCE, Rate 50 g/ha): 0 | Plant response rating, Wild buckwheat ([22]; Rate 200 g/ha, POSTEMERGENCE): 10 | Plant response rating, Wild buckwheat ([22]; Rate 200 g/ha, PREEMERGENCE): 1 | Plant response rating, Giant foxtail ([23]; POSTEMERGENCE, Rate 50 g/ha): 4 | Plant response rating, Giant foxtail ([23]; PREEMERGENCE, Rate 50 g/ha): 2 | Plant response rating, Giant foxtail ([23]; Rate 200 g/ha, POSTEMERGENCE): 7 | Plant response rating, Giant foxtail ([23]; Rate 200 g/ha, PREEMERGENCE): 9
